{"source": "patent US20080275073A1", "about": "“CRYSTALLINE FORMS AND POLYMORPHS OF N-(3-(DIMETHYLAMINO)PROPYL)-4-(4-(3-FLUORO-4-METHOXYPHENYL) PYRIMIDIN-2-YLAMINO) BENZENESULFONAMIDE AS PHARMACEUTICALLY ACCEPTABLE SALTS” (Wyeth, priority 2007, published 2008)", "key": {"[1]": {"assay": "water solubility of free base and salts of compound 3", "type": "physicochemical", "experimental": "(§1) In an exemplary embodiment, the solubility of the free base form of compound 3 in THF, DMSO and DMF was high but the solubility in group 3 solvents, including water for example, was low. For example, acetone is needed to dissolve the free base at 50° C. […] HCl, phosphoric acid, tartaric acid, acetic acid, D-, L-glucoronic acid and succinic acid were used to prepare pharmaceutically acceptable salts of compound 3. One crystalline form of compound 3 as a mono-succinate salt and five crystalline polymorphs of compound 3 as a hemi-succinate salt are provided in the Examples."}, "[2]": {"assay": "solubility of free base in organic solvents / group 3 solvents", "type": "physicochemical", "details": "free base form", "experimental": "as §1"}}, "data": [{"compound": "COc1ccc(-c2ccnc(Nc3ccc(S(=O)(=O)NCCCN(C)C)cc3)n2)cc1F", "note": "[compound 3]", "values": [{"measurement": "Solubility in water", "setting": "[1]; free base, thermogravimeteric method", "value": "not detectable"}, {"measurement": "solubility in DMF", "setting": "[2]; DMF", "value": "high"}, {"measurement": "solubility in DMSO", "setting": "[2]; DMSO", "value": "high"}, {"measurement": "solubility in THF", "setting": "[2]; THF", "value": "high"}, {"measurement": "solubility in group 3 solvents, including water", "setting": "[2]; group 3 solvents, including water", "value": "low"}]}, {"compound": "COc1ccc(-c2ccnc(Nc3ccc(S(=O)(=O)NCCCN(C)C)cc3)n2)cc1F.O=C(O)CCC(=O)O", "note": "[mono-succinate, N-(3-(dimethylamino)propyl)-4-(4-(3-fluoro-4-methoxyphenyl)pyrimidin-2-ylamino)benzenesulfonamide]", "values": [{"measurement": "solubility", "setting": "[1]; thermodynamic from solid, in water", "value": 1100, "unit": "µg/mL"}]}]}
